Experimental data: patent publication US8927547B2, “Pyrimidine derivatives” (Noviga Research AB, priority 2010, dated 2015)

Legend:
Type in all cases: cell-based
U-937 = assay: FMCA, U-937 lymphoma; details: Homo sapiens, read-out: EC50 (μM) in various cancer cell lines: U-937
Text: (§1) The Fluorometric Microculture Cytotoxicity Assay, FMCA, is a three day non-clonogenic microplate-based cell viability assay used for measurement of the cytotoxic and/or cytostatic effect of compounds in vitro (Lindhagen, E., et al. Nat Protoc, 2008. 3(8): p. 1364-9). FMCA (Larsson, R. and P. Nygren, Anticancer Res, 1989. 9(4): p. 1111-9) represents a valuable method to measure cytotoxicity in a number of cell types, both cell lines and primary cells from patients (Larsson, R., et al., Int J Cancer, 1992. 50(2): p. 177-85; Fridborg, H., et al., Eur J Cancer, 1999. 35(3): p. 424-32; Dhar, S., et al., Br J Cancer, 1996. 74(6): p. 888-96).
(§2) FMCA is based on the principle that fluorescein diacetate (FDA) is converted to the fluorescent probe fluorescein by esterases in the plasma membranes of living cells. For experiments, 96 or 384-well microplates are prepared with compounds and stored at −70° C. until use. Cells are then seeded into the drug-prepared plates and placed in an incubator for 72 h. On the last day of incubation, the plates are washed and a buffer containing FDA is added and incubated with the cells for 45 minutes. Finally the fluorescence per well is measured in a fluorometer and a Survival Index % (SI) for each compound-treated well is calculated with the equation: Compound-treated cells minus blank divided by control cells minus blank. A high SI-value indicates a large percentage of living cells and vice versa.
(§3) Compounds of the invention as well as kinase inhibitors sorafenib, sunitinib, dasatinib, and pazopanib (reference compounds) were diluted with PBS to a concentration which was ten-times higher than the desired starting concentration. Then, a Biomek 2000 liquid handling system was employed to serially dilute the compounds in a deep-well 384-well plate. From this plate, assay plates containing 5 μl compound per well were prepared with the Biomek 2000. Certain compounds precipitated when diluted with PBS, and these compounds were therefore prepared in a 96-well plate manually as described above using culture medium RPMI 1640 instead of PBS.
(§4) The compounds were also tested at five concentrations, with five times serial dilution on the following cell types: CCRF-CEM, hTERT-RPE1 (normal retinal epithelial cells), hRPTEpiC (normal renal cells) and PBMC (peripheral blood mononuclear cells). Each experiment was performed three times, except for PBMC and hRPTEpiC, which were performed twice. SI-values were calculated, graphs were plotted using GraphPadPrism 5.0 (GraphPad Software Inc. La Jolla, Calif.) and EC50-values for each cell type and compound were determined from the curves.
(§5) The compounds of the invention were also tested on further cancer cell lines related to colon cancer (HCT116; see e.g Brattain M G, et al. Cancer Res. 1981, 41, 1751-1756), breast cancer (MCF7; see e.g. Soule H D, et al. J. Natl. Cancer Inst. 1973, 51, 1409-1416), teniposide-resistant leukaemia (CEM/VM1; see e.g. Danks M K et al. Cancer Res. 1987, 47, 1297-1301), lung cancer (H69; see e.g. Gazdar A F, et al. Cancer Res. 1980, 40, 3502-3507), doxorubicin-resistant lung cancer (H69AR; see e.g. Mirski S E, et al. Cancer Res. 1987, 47, 2594-2598), myeloma (RPMI 8226; see e.g. Matsuoka Y, et al. Proc. Soc. Exp. Biol. Med. 1967, 125, 1246-1250), doxorubicin-resistant myeloma (8226/Dox40; see e.g. Dalton W S et al. Blood 1989, 15,747-752), lymphoma (U-937, see e.g. Sundstrom C, et al. Int. J. Cancer 1976, 17, 565-577), vincristin-resistant lymphoma (U-937-vcr; see e.g. Botling J, et al. Int J Cancer 1994, 15; 58 (2), 269-274), ovarian cancer (A2780; see e.g. Hamilton T C, et al. Semin Oncol. 1984, 11, 285-298), doxorubicin-resistant ovarian cancer (A2780/Adr), cisplatin-resistant ovarian cancer (A2780/Cis; see e.g. Behrens B C, et al. Cancer Res. 1987, 47, 414-418), renal cancer (ACHN; see e.g. Borden E C, et al. Cancer Res. 1982, 42(12), 4948-4953), pancreatic cancer (PANC-1, BxPC-3, and MIA PaCa-2; see e.g. Lieber M, et al. Int. […]

[1] = system: CCRF-CEM cancer cells - leukaemia; assay: Fluorometric Microculture Cytotoxicity Assay (FMCA), CCRF-CEM; details: Homo sapiens, 72 h incubation
Text: as §1, §2
In subsequent experiments, compounds were tested, along with kinase inhibitors (dasatinib, pazopanib, sorafenib, and sunitinib) as described above. Initially, the acute lymphoblastic leukaemia cell line CCRF-CEM (see e.g. Foley G E, et al. Cancer 1965, 18, 522-529) was used throughout. In the assay plates, medium was added to six empty wells (blank wells) and wells were filled with PBS and cell suspension and served as control wells. SI-values were then calculated for each compound-treated well as described above. All experiments were conducted twice and a new batch of plates was prepared for each experiment.
For dose-response experiments, 384-well plates were prepared as follows:
as §3, §4

H69 = assay: FMCA, H69 lung cancer; details: Homo sapiens, NCI-H69, read-out: EC50 (μM) in various cancer cell lines: H69
Text: as §1, §2, §3, §4, §5

HCT116 = assay: FMCA, HCT116 colon cancer; details: Homo sapiens, HCT-116, read-out: EC50 (μM) in various cancer cell lines: HCT116
Text: as §1, §2, §3, §4, §5

MCF7 = assay: FMCA, MCF7 breast cancer; details: Homo sapiens, read-out: EC50 (μM) in various cancer cell lines: MCF7
Text: as §1, §2, §3, §4, §5

8226/Dox40 = assay: FMCA, 8226/Dox40 doxorubicin-resistant myeloma; details: read-out: EC50 (μM) in various cancer cell lines: 8226/Dox40
Text: as §1, §2, §3, §4, §5

A2780 = assay: FMCA, A2780 ovarian cancer; details: Homo sapiens, read-out: EC50 (μM) in various cancer cell lines: A2780
Text: as §1, §2, §3, §4, §5

ACHN = assay: FMCA, ACHN renal cancer; details: Homo sapiens, read-out: EC50 (μM) in various cancer cell lines: ACHN
Text: as §1, §2, §3, §4, §5

U-937-vcr = assay: FMCA, U-937-vcr vincristin-resistant lymphoma; details: read-out: EC50 (μM) in various cancer cell lines: U-937-ver
Text: as §1, §2, §3, §4, §5

CEM/VM1 = assay: FMCA, CEM/VM1 teniposide-resistant leukaemia; details: Homo sapiens, read-out: EC50 (μM) in various cancer cell lines: CEM/VM1
Text: as §1, §2, §3, §4, §5

RPMI 8226 = assay: FMCA, RPMI 8226 myeloma; details: Homo sapiens, read-out: EC50 (μM) in various cancer cell lines: RPMI 8226
Text: as §1, §2, §3, §4, §5

H69AR = assay: FMCA, H69AR doxorubicin-resistant lung cancer; details: Homo sapiens, read-out: EC50 (μM) in various cancer cell lines: H69 AR
Text: as §1, §2, §3, §4, §5

SMILES | EC50 (U-937) | EC50 [1] | EC50 (H69) | EC50 (HCT116) | EC50 (MCF7) | EC50 (8226/Dox40) | EC50 (A2780) | EC50 (ACHN) | EC50 (U-937-vcr) | EC50 (CEM/VM1) | EC50 (RPMI 8226) | EC50 (H69AR)
c1cc(Nc2nccc(NCc3ccc4[nH]ccc4c3)n2)c2cn[nH]c2c1 [Example 76, N^4-(1H-indol-5-ylmethyl)-N^2-(1H-indazol-4-yl)pyrimidine-2,4-diamine] | 0.19 µM | 230 nM | 12.7 µM | 3.09 µM | 3.08 µM | 1.1 µM | 0.34 µM | 1.59 µM | 0.4 µM | 0.22 µM | 0.7 µM | 0.34 µM
COc1ccc2[nH]cc(CCNc3nc(C)cc(NCc4ccc5[nH]ccc5c4)n3)c2c1 [Example 84, N^4-(1H-indol-5-ylmethyl)-N^2-[2-(5-methoxy-1H-indol-3-yl)ethyl]-6-methylpyrimidine-2,4-diamine] | 0.21 µM | 40 nM | 5.47 µM | 1.16 µM | 2.06 µM | 2.58 µM | 0.33 µM | 1.62 µM | 0.27 µM | 0.19 µM | 0.45 µM | 0.35 µM
COc1ccc2[nH]cc(CCNc3nccc(NCc4ccc5[nH]c(C)cc5c4)n3)c2c1 [Example 64, N^2-[2-(5-methoxy-1H-indol-3-yl)ethyl]-N^4-(2-methyl-1H-indol-5-ylmethyl)pyrimidine-2,4-diamine] | 0.08 µM | 50 nM | 4.18 µM | 1.33 µM | 2.33 µM | 1.19 µM | 0.29 µM | 1.6 µM | 0.32 µM | 0.05 µM | 0.23 µM | 0.29 µM
COc1ccc2[nH]cc(CCNc3nccc(NCc4ccc5[nH]ncc5c4)n3)c2c1 [Example 66, N^4-(1H-indazol-5-ylmethyl)-N^2-[2-(5-methoxy-1H-indol-3-yl)ethyl]pyrimidine-2,4-diamine] | 0.35 µM | 210 nM | 11.6 µM | 2.45 µM | 3.35 µM | 10 µM | 0.78 µM | 3.32 µM | 0.99 µM | 0.27 µM | 1.83 µM | 0.64 µM
